Key:
CD8^+ T cells [1] = experiment: Peptide immunization of ABab.I mice, intracellular IFN-γ staining of CD8+ T cells; assay type: in vivo, mouse; settings: for CD8^+ T cells produced IFN-γ: ABab.I mice, peripheral blood restimulated in vitro seven days post-injection; for mice responded: out of 6-7 mice/antigen
Experimental: A 200 μl injection suspension containing 100 μg of short peptides in PBS, 100 μl of incomplete Freund's adjuvant, and 50 μg CpG oligonucleotides were injected subcutaneously on both lateral sides of hind legs. 10- to 20-week-old young ABabDII or ABab.I mice (6-7 mice/group) were immunized with a 4-week interval between prime-boosts. […] As standard controls, ABabDII^1 and ABab.I mice were immunized with 100 μg of MAGE-A1278 […] […] 7-10 days after every boost injection, peripheral blood cells from immunized mice were ACK-lysed and cultured with 1 μM respective specific or unspecific peptide in the presence of protein transport inhibitor for 5-6 hours. Post-cell fixation, cells were intracellularly stained for IFN-γ, surface stained for CD3, CD8 markers, and analyzed by flow cytometry.
We analyzed ABab.I mice for antigen-specific CD8^+ T cell responses against described model antigens (FIG. 19A) using peptide immunization (FIG. 20). […] The MAGE-A1 epitope, […] The unspecific peptide used in in vitro restimulations was a NY-ESO epitope, […] (SEQ ID NO: 180).
Procedure: young mice were peptide-immunized (minimum twice) with intervals of at least 4-weeks between injections. Seven days post-booster injections, PBMCs from multi-HLA mice were stimulated in vitro with either the same peptides used for immunization (right), or unspecific peptides (left), or CD3/CD28 beads (middle, positive control). Intracellular flow cytometry staining measured the amount of IFN-γ cytokine released by the CD8^+ T cells after reacting to their respective epitopes. By flow cytometry, CD8^+ T cells were in vitro measured for CD3, CD8, and intracellularly IFN-γ expression. Dot plots in the figure depict CD8^+ IFN-γ^+ T cells (gated on CD3^+ lymphocytes). As an unspecific peptide, NY-ESO peptide ([…]) was used (as a negative control) only for in vitro stimulations.

CD8^+ T cells [2] = experiment: Peptide immunization of ABabDII mice, CD8+ T cell IFN-γ response; assay type: in vivo, mouse
Experimental: A 200 μl injection suspension containing 100 μg of short peptides in PBS, 100 μl of incomplete Freund's adjuvant, and 50 μg CpG oligonucleotides were injected subcutaneously on both lateral sides of hind legs. 10- to 20-week-old young ABabDII or ABab.I mice (6-7 mice/group) were immunized with a 4-week interval between prime-boosts. Similar peptide mixtures were prepared and injected for further boosting regimens of all peptides. As standard controls, ABabDII^1 and ABab.I mice were immunized with 100 μg of MAGE-A1278 […] (SEQ ID NO: 26) peptide with a similar injection mixture. 7-10 days after every boost injection, peripheral blood cells from immunized mice were ACK-lysed and cultured with 1 μM respective specific or unspecific peptide in the presence of protein transport inhibitor for 5-6 hours. Post-cell fixation, cells were intracellularly stained for IFN-γ, surface stained for CD3, CD8 markers, and analyzed by flow cytometry.
For TCR candidate discovery, young ABabDII mice (n=7, 12-16 weeks) were immunized with mutant 9-mer peptides (FIG. 3B, […], SEQ ID NO: 30) at 4-week intervals. CD8^+ T cell responses were analyzed in blood one week after every boost using intracellular staining, followed by culturing the T cells and IFN-γ capture assay to sort for peptide-specific T cells (FIG. 4A). […]

A375 cells = experiment: Endogenous processing assay, co-culture with A375 cells, IFN-γ; assay type: cell-based, Homo sapiens; settings: concluded from TCR co-culture with TRRAP+ cell lines
Excerpt: FIGS. 4A-4F show the generation and characterization of TRRAP S722F TCRs in ABabDII mice. FIG. 4A depicts the TCR discovery pipeline with the immunization schedule as used in an illustrative example. […] Controls with wild-type S722 peptide or without (w/o) peptide. One representative flow cytometry plot out of three responder mice is given. […] IFN-γ levels measured after overnight co-culture of PBMCs (1×10^5) either with A375 cells (mutant-S722F^+, NY-ESO^+) or with SK-Mel-37 (wild-type-S722^+, NY-ESO^+). The TCR-ESO recognizes the NY-ESO157-165 epitope. Bar graph represents mean±SD (n=2). One representation out of three co-culture experiments is given.
Transduced T cells were co-cultured with peptide-titrated T2 (TAP^−/−) cells to ensure TCR interaction and its affinity to S722F. […] NY-ESO157-165, the HLA-A2 epitope is expressed on melanoma cells A375 and SK-Mel-37.

[3] = target: T1, TRRAP (wild-type S722) peptide on HLA-A*02:01 (human); experiment: cytokine release
T1 peptide: KLVFGSVSL

[4] = target: T2, TRRAP S722F peptide on HLA-A*02:01 (human); experiment: cytokine release
T2 peptide: KLVFGSVFL

TPRVTGGGAM
CD8^+ T cells produced IFN-γ (CD8^+ T cells [1]): About 1.4%

SAFRCFIVY
CD8^+ T cells produced IFN-γ (CD8^+ T cells [1]): about 0.2% | mice responded (CD8^+ T cells [1]): 3

KLVFGSVEL [mutant epitope-S722F, TRRAP S722F mutant nonamer, HLA-A2-restricted]
T cells responding in the spleen after T cell culturing (CD8^+ T cells [2]; 10^−9 M peptide and IL-2 (20 IU/ml) for 10 days): about 17% | T cells responded in blood (CD8^+ T cells [2]; ABabDII mice, one-week post-4th injection (3rd boost)): about 0.8% | endogenous processing and presentation on HLA-A2 (A375 cells): not endogenously processed and presented on HLA-A2

QYDPVAALF
CD8^+ T cells produced IFN-γ (CD8^+ T cells [1]): about 0.3%

APRGPHGGAASGL (NY- ESO peptide; NY- ESO epitope) [unspecific NY-ESO peptide used for in vitro restimulation]
CD8^+ T cells produced IFN-γ (CD8^+ T cells [1]): No T cell responses were observed

VRIGHLYIL
CD8^+ T cells produced IFN-γ (CD8^+ T cells [1]): about 0.23% | mice responded (CD8^+ T cells [1]): 1

KVLEYVIKV
CD8^+ T cells produced IFN-γ (CD8^+ T cells [1]): ~1% | mice responded (CD8^+ T cells [1]): 3

KMRMRRMRR
CD8^+ T cells produced IFN-γ (CD8^+ T cells [1]): about 1.8% | mice responded (CD8^+ T cells [1]): 1

VVGAVGVGK
CD8^+ T cells produced IFN-γ (CD8^+ T cells [1]): About 6.9% | mice responded (CD8^+ T cells [1]): 6

B1: TRRAP S722F TCR, dominant TCR Valpha17-Vbeta27 pair (TCR)
alpha TRAV17-1 TRAJ58 CDR3: CATDAEETSGSRLTF
beta TRBV27-1 TRBJ2-1 CDR3: CASSLAGIYNEQFF
binding result [3]: no recognition | binding result [4]: recognises
